From patent US20090315454A1, “IRIDIUM COMPLEX COMPOUND, ORGANIC ELECTROLUMINESCENT DEVICE OBTAINED BY USING THE SAME, AND USES OF THE DEVICE” (Showa Denko K.K., priority 2006, published 2009)

Experiment: Solubility test (visual, complete dissolution at prescribed concentration)
Format: physicochemical
Set-up: key: A: completely dissolved; B: partially undissolved
Conditions: stirred at room temperature for one hour
Description: The facial and meridional iridium complex compounds (A) synthesized in Example 1 and the facial iridium complex compounds (B) to (D) synthesized in Examples 2 to 4 were tested for solubility. The test was carried out by mixing the iridium complex compound with chloroform or toluene so that a prescribed concentration was obtained, and visually determining if the iridium complex compound was completely dissolved or partially undissolved after the mixture had been stirred at room temperature for one hour.
Iridium complex compounds Ir(ppy)3 (the following Formula (Y)) and Ir(Fppy)3 (the following Formula (X)) were tested for solubility. The test was carried out by mixing the iridium complex compound with chloroform or toluene so that a prescribed concentration was obtained, and visually determining if the iridium complex compound was completely dissolved or partially undissolved after the mixture had been stirred at room temperature for one hour.

Row | SMILES | Solubility at concentration 0.1 wt % (chloroform) | Solubility at concentration 0.5 wt % (chloroform) | Solubility at concentration 1 wt % (chloroform) | Solubility at concentration 0.1 wt % (toluene) | Solubility at concentration 0.5 wt % (toluene) | Solubility at concentration 1 wt % (toluene)
1 | CC(C)(C)c1ccnc(-c2[c-]cc(F)cc2F)c1.CC(C)(C)c1ccnc(-c2[c-]cc(F)cc2F)c1.CC(C)(C)c1ccnc(-c2[c-]cc(F)cc2F)c1.[Ir+3] [Compound (A) meridional complex] | A | A | A | A | A | A
2 | CCCCCc1ccnc(-c2c(F)cc(F)c[c]2[Ir]([c]2cc(F)cc(F)c2-c2cc(CCCCC)ccn2)[c]2cc(F)cc(F)c2-c2cc(CCCCC)ccn2)c1 [Compound (B) facial complex] | A | A | A | A | B | B
3 | CCCCC(CCCC)c1ccnc(-c2c(F)cc(F)c[c]2[Ir]([c]2cc(F)cc(F)c2-c2cc(C(CCCC)CCCC)ccn2)[c]2cc(F)cc(F)c2-c2cc(C(CCCC)CCCC)ccn2)c1 [Compound (C) facial complex] | A | A | A | A | A | B
4 | CCCc1cc(-c2c(F)cc(F)c[c]2[Ir]([c]2cc(F)cc(F)c2-c2cc(CCC)c(CC)cn2)[c]2cc(F)cc(F)c2-c2cc(CCC)c(CC)cn2)ncc1CC [Compound (D) facial complex] | A | A | A | A | A | A
